From ChEMBL document CHEMBL3044694, “Induction of disease resistance by acibenzolar-S-methyl and o-hydroxyethylorutin against Botrytis cinerea in tomato plants” (Crop Prot, 2006)
Active and inactive are the calls of the source. The rule behind the calls is not given here.

Legend:
Solanum lycopersicum [1] = test: Phytotoxicity in Solanum lycopersicum (tomato) at 0.3 mM applied as spray; format: organism-based; conditions: in vivo, other, 300 µM
Solanum lycopersicum [2] = test: Induction of systemic acquired resistance activity in Botrytis cinerea infected Solanum lycopersicum (tomato) leaves assessed as increase in H2O2 level at 0.3 mM applied as spray 24 hr prior to inoculation measured after 2 to 6 hr relative to untreated control; format: functional, organism-based
Solanum lycopersicum [3] = test: Induction of systemic acquired resistance activity in Botrytis cinerea infected Solanum lycopersicum (tomato) leaves assessed as increase in H2O2 level at 0.3 mM applied as spray 24 hr prior to inoculation measured after 2 to 6 hr relative to untreated infected control; format: functional, organism-based
Solanum lycopersicum [4] = test: Induction of systemic acquired resistance activity in Botrytis cinerea infected Solanum lycopersicum (tomato) leaves assessed as visible lesions on leaf surface at 0.3 mM applied as spray 24 hr prior to inoculation measured after 14 days (reference value: 66%); format: functional
Solanum lycopersicum [5] = test: Induction of systemic acquired resistance activity in Botrytis cinerea infected Solanum lycopersicum (tomato) leaves assessed as induction of superoxide anion radical generation at 0.3 mM applied as spray 24 hr prior to inoculation measured after 2 to 6 hr by nitro blue tetrazolium reduction assay relative to control; format: functional, organism-based
Solanum lycopersicum [6] = test: Induction of systemic acquired resistance activity in Solanum lycopersicum (tomato) leaves assessed as decrease in hydroxyl radical generation at 0.3 mM applied as spray 24 hr prior to inoculation measured after 2 to 48 hr by TBARS assay relative to untreated control; format: functional, organism-based
Solanum lycopersicum [7] = test: (§1) Induction of systemic acquired resistance activity in Botrytis cinerea infected Solanum lycopersicum (tomato) leaves assessed as increase in guaiacol peroxidase activity at 0.3 mM applied as spray 24 hr prior to inoculation measured after 6 to 48 hr by colorimetric assay relative to untreated infected control; format: functional, organism-based
Solanum lycopersicum [8] = test: as §1, with “untreated” for “untreated infected”; format: functional, organism-based

## CSC(=O)c1cccc2nnsc12 [ACIBENZOLAR-S-METHYL]
Solanum lycopersicum [1]
  Activity: Non-toxic
Solanum lycopersicum [2]
  Activity: Active
Solanum lycopersicum [3]
  Activity: Active
Solanum lycopersicum [4]
  Activity: 27%
Solanum lycopersicum [5]
  Activity: Active
Solanum lycopersicum [6]
  Activity: Active
Solanum lycopersicum [7]
  Activity: Active
Solanum lycopersicum [8]
  Activity: Active
